# From paper PMC6943437, “Coupling the Antimalarial Cell Penetrating Peptide TP10 to Classical Antimalarial Drugs Primaquine and Chloroquine Produces Strongly Hemolytic Conjugates” (Molecules, 2019)
# Where “and” joins values, the source holds several entries; their conditions need not be identical. Identical values can stand only once. Where no end group is shown, it is not given here.
# Tested on: P. falciparum W2
# Format: cell-based
# Conditions: P. falciparum W2 (CQ-resistant), 48 h, n = 3
# Procedure: All conjugates and their respective parent CPP (Table 1), were screened in vitro for their antiplasmodial activity, using the CQ-resistant P. falciparum W2 strain. The primaquine analogue to 5a, i.e., conjugate 3 where the CPP is TP10, PQ-C4-TP10 (3a), was also included in the study for comparison.
# Synchronized ring-stage P. falciparum parasites (W2 strain) were incubated with test compounds for 48 h in Roswell Park Memorial Institute (RPMI) 1640 medium containing 10% human serum or 0.5% Albumax serum substitute. Parasites were then fixed with 1% formaldehyde in phosphate-buffered saline (PBS), pH 7.4, for […] at RT and labeled with YOYO-1 (1 nM; molecular probes) in 0.1% Triton X-100 in PBS. Parasitemias were determined by flow cytometry, from dot plots (forward scatter versus fluorescence). For 50% inhibitory concentration (IC50) determinations, dose-response studies were performed, with the values normalized to percent control activity, and IC50s were calculated using GraphPad Prism, with data fitted by nonlinear regression.
row,Compound,IC50
1,CC[C@H](C)[C@H](NC(=O)[C@H](CCCCN)NC(=O)[C@@H](NC(=O)[C@H](CCC(N)=O)NC(=O)[C@H](CCCNC(=N)N)NC(=O)CCC(=O)NCCCCNc1ccnc2cc(Cl)ccc12)[C@@H](C)CC)C(=O)N[C@@H](Cc1c[nH]c2ccccc12)C(=O)N[C@@H](Cc1ccccc1)C(=O)N[C@@H](CCC(N)=O)C(=O)N[C@@H](CC(N)=O)C(=O)N[C@@H](CCCNC(=N)N)C(=O)N[C@@H](CCCNC(=N)N)C(=O)N[C@@H](CCSC)C(=O)N[C@@H](CCCCN)C(=O)N[C@@H](Cc1c[nH]c2ccccc12)C(=O)N[C@@H](CCCCN)C(=O)N[C@@H](CCCCN)C(N)=O [5i],> 10 µM
2,CC[C@H](C)[C@H](NC(=O)[C@H](CCCCN)NC(=O)[C@@H](NC(=O)[C@H](CCC(N)=O)NC(=O)[C@@H](N)CCCNC(=N)N)[C@@H](C)CC)C(=O)N[C@@H](Cc1c[nH]c2ccccc12)C(=O)N[C@@H](Cc1ccccc1)C(=O)N[C@@H](CCC(N)=O)C(=O)N[C@@H](CC(N)=O)C(=O)N[C@@H](CCCNC(=N)N)C(=O)N[C@@H](CCCNC(=N)N)C(=O)N[C@@H](CCSC)C(=O)N[C@@H](CCCCN)C(=O)N[C@@H](Cc1c[nH]c2ccccc12)C(=O)N[C@@H](CCCCN)C(=O)N[C@@H](CCCCN)C(N)=O [Penetratin],> 10 µM
3,N=C(N)NCCC[C@H](NC(=O)[C@H](CCCNC(=N)N)NC(=O)[C@H](CCCNC(=N)N)NC(=O)[C@H](CCCNC(=N)N)NC(=O)[C@H](CCCNC(=N)N)NC(=O)[C@H](CCCNC(=N)N)NC(=O)[C@H](CCCNC(=N)N)NC(=O)[C@H](CCCNC(=N)N)NC(=O)[C@@H](N)CCCNC(=N)N)C(N)=O [R9],> 10 µM
4,N=C(N)NCCC[C@H](NC(=O)CN)C(=O)N[C@@H](CCCCN)C(=O)N[C@@H](CCCCN)C(=O)N[C@@H](CCCNC(=N)N)C(=O)N[C@@H](CCCNC(=N)N)C(=O)N[C@@H](CCC(N)=O)C(=O)N[C@@H](CCCNC(=N)N)C(=O)N[C@@H](CCCNC(=N)N)C(=O)N[C@@H](CCCNC(=N)N)C(=O)N1CCC[C@H]1C(=O)N1CCC[C@H]1C(=O)N[C@@H](CCC(N)=O)C(N)=O [TAT],> 10 µM
5,CC[C@H](C)[C@H](NC(=O)[C@H](CCCCN)NC(=O)[C@H](CCCCN)NC(=O)[C@H](C)NC(=O)[C@H](CC(C)C)NC(=O)[C@H](C)NC(=O)[C@H](C)NC(=O)[C@H](CC(C)C)NC(=O)[C@H](C)NC(=O)[C@H](CCCCN)NC(=O)[C@H](CC(C)C)NC(=O)[C@H](CC(N)=O)NC(=O)[C@@H](NC(=O)[C@H](CCCCN)NC(=O)CNC(=O)[C@H](CC(C)C)NC(=O)[C@H](CC(C)C)NC(=O)[C@H](Cc1ccc(O)cc1)NC(=O)CNC(=O)[C@H](C)NC(=O)[C@H](CO)NC(=O)[C@H](CC(N)=O)NC(=O)[C@H](CC(C)C)NC(=O)[C@@H](NC(=O)[C@H](Cc1c[nH]c2ccccc12)NC(=O)CN)[C@@H](C)O)[C@@H](C)CC)C(=O)N[C@@H](CC(C)C)C(N)=O [Transportan],3.05 µM and 3.1 µM
6,H-FFLIPKGGRKKRRQRRRPPQ-NH2 [PasTAT],> 10 µM
7,H-RQKRLIRQKRLIRQKRLI-NH2 [DPT-sh2],> 10 µM
8,H-VKKKKIKREIKI-NH2 [DPT-sh1],> 10 µM
9,VRLIVAVRIWRR-NH2 [IDR-1018],> 10 µM
